Measured values reported in the NIST ThermoML archive (doi:10.1021/acs.jced.6b00916).
Values joined by “and” are separate entries in the source; they are usually repeats but may differ in a detail not shown here. Equal entries are not always repeated.

Conditions: Liquid, Closed cell (Static) method

FC(F)(F)/C=C/Cl [(E)-1-chloro-3,3,3-trifluoroprop-1-ene]
Conditions | vapor or sublimation pressure
234.15 K | 7.2 kPa
237.15 K | 8.5 kPa
240.15 K | 10 kPa
243.15 K | 11.7 kPa
246.15 K | 13.7 kPa
249.15 K | 16 kPa
252.15 K | 18.6 kPa
255.15 K | 21.6 kPa
258.15 K | 25 kPa
261.15 K | 28.8 kPa
264.15 K | 33.1 kPa
267.15 K | 38 kPa
270.15 K | 43.4 kPa
273.15 K | 49.4 kPa
276.15 K | 56.1 kPa
279.15 K | 63.6 kPa
282.15 K | 71.7 kPa
285.15 K | 80.7 kPa
288.15 K | 90.6 kPa
291.15 K | 101.7 kPa
293.15 K | 108.8 kPa
294.15 K | 113.6 kPa
295.15 K | 117.2 kPa
297.15 K | 126 kPa and 126.6 kPa and 126.4 kPa
299.15 K | 135.1 kPa
300.15 K | 140.5 kPa
301.15 K | 144.9 kPa
303.15 K | 155.3 kPa and 155.9 kPa
305.15 K | 166.3 kPa
306.15 K | 172.6 kPa
307.15 K | 177.8 kPa
309.15 K | 190.1 kPa and 190.6 kPa
311.15 K | 202.9 kPa
312.15 K | 210 kPa
313.15 K | 216.1 kPa
315.15 K | 230.1 kPa and 230.9 kPa
317.15 K | 245 kPa
318.15 K | 253.5 kPa
319.15 K | 260.7 kPa
321.15 K | 277.1 kPa and 277.7 kPa
323.15 K | 296.3 kPa and 294.3 kPa
324.15 K | 303.6 kPa
325.15 K | 312.2 kPa
327.15 K | 331 kPa and 331.3 kPa
329.15 K | 350.5 kPa
330.15 K | 361 kPa
331.15 K | 371 kPa
333.15 K | 392.5 kPa and 392.6 kPa
335.15 K | 413.9 kPa
336.15 K | 426.2 kPa
337.15 K | 437.2 kPa
339.15 K | 461.2 kPa and 461.9 kPa
341.15 K | 486.3 kPa
342.15 K | 499.8 kPa
343.15 K | 513.2 kPa
345.15 K | 540.4 kPa and 540 kPa
347.15 K | 568.5 kPa
348.15 K | 582.7 kPa
349.15 K | 597.9 kPa
351.15 K | 628.7 kPa and 628.1 kPa
353.15 K | 660.4 kPa
354.15 K | 675.8 kPa
357.15 K | 726.3 kPa
360.15 K | 779.6 kPa
363.15 K | 835.8 kPa
366.15 K | 894.8 kPa
369.15 K | 957.1 kPa
372.15 K | 1022.5 kPa
375.15 K | 1091.3 kPa
